Results: US8129499B2 (priority 2008, dated 2012)
Where two headings read alike, the source gives them in different places. Residues, ends and D or L forms follow the SMILES beside them. No end group written: not given here.

What was measured:
MDCK cells = conditions: 5-75 μM peptide, 24 hours, in words
cRBCs = conditions: for effect on cRBC membrane integrity: at any concentration (1-30 μM), in words
in vitro = conditions: dog, MDCK cells
purified PR/8 virus = tested on: purified PR/8 virus; parameters: species or system influenza virus A/PuertoRico/8/34 (PR/8, H1N1)
[1] = 10 μM peptide, 64 HA units of purified A/PR/8/34, Yes/No
[2] = 10 μM peptide, mock treated virus (64 HAU) = 100% hemagglutination
[3] = 0.1-10 μM peptide, 64 HA units purified PR/8, estimated from dose response curves (Table 3)

| Molecule | % inhibition (purified A/PR/8/34; 10 μM) [%] | HA inhibition (purified A/PR/8/34) | other results |
| --- | --- | --- | --- |
| RRKKLAVLLAAAA [SEQ ID NO: 56, RRKKLAVLLAAAA] | 0 | – | – |
| RRKKLAP [SEQ. ID. NO: 27, RRKKLAP] | 0 | No | – |
| KLAVLLALLA [SEQ ID NO: 52, KLAVLLALLA] | 25 | – | – |
| RRKKAAVALLPA [SEQ. ID. NO: 9, RRKKAAVALLPA] | 0 | No | – |
| RRKKP [SEQ. ID. NO: 29, RRKKP] | 0 | No | – |
| N=C(N)NCCC[C@H](NC(=O)[C@@H](N)CCCNC(=N)N)C(=O)N[C@@H](CCCCN)C(=O)N[C@@H](CCCCN)C(=O)O [SEQ. ID. NO: 17, RRKK] (H-RRKK-OH; N-terminus and C-terminus assumed) | 0 | No | antiviral activity (purified A/PR/8/34): no antiviral activity |
| RKKLAVLLALLA [SEQ ID NO: 50, RKKLAVLLALLA] | 75 | – | EC50 (purified A/PR/8/34): 8 µM; viral hemagglutination activity (FIG. 7) (purified A/PR/8/34): detected to a lesser extent |
| RRKKLPAVLLALLAP [SEQ. ID. NO: 22, RRKKLPAVLLALLAP] | – | Yes | viral hemagglutination activity (FIG. 7) (purified A/PR/8/34): the same as that for the EB peptide |
| RRKKAALLVLAALAVLA [SEQ. ID. NO: 30, RRKKAALLVLAALAVLA] | 0 | No | – |
| KKLAVLLALLA [SEQ ID NO: 53, KKLAVLLALLA] | 0 | – | – |
| RRKKVLLALLAP [SEQ. ID. NO: 23, RRKKVLLALLAP] | 90 ± 4 | Yes | EC50 (purified A/PR/8/34): 4 ± 0.8 µM |
| RRKKLLPAVLLALLAP [SEQ. ID. NO: 21, RRKKLLPAVLLALLAP] | 94 ± 4 | Yes | EC50 (purified A/PR/8/34): 0.8 ± 0.3 µM |
| RRKKAAVALLPAVLLA [SEQ. ID. NO: 5, RRKKAAVALLPAVLLA] | 96 ± 3 | Yes | EC50 (purified A/PR/8/34): 2.8 ± 1.1 µM |
| RRKKLLAVLLALLA [SEQ ID NO: 44, RRKKLLAVLLALLA] | 95±2 | Yes | EC50 (purified A/PR/8/34): 3 µM |
| RRKKAAVALLPAV [SEQ. ID. NO: 8, RRKKAAVALLPAV] | 0 | No | – |
| RRKKLLALLAP [SEQ. ID. NO: 24, RRKKLLALLAP] | 0 | No | – |
| RRKKAAAAAAAAA [SEQ ID NO: 49, RRKKAAAAAAAAA] | 87.5 | – | EC50 (purified A/PR/8/34): ~7 µM; viral hemagglutination activity (FIG. 7) (purified A/PR/8/34): detected to a lesser extent |
| RKAVLLALLA [SEQ ID NO: 51, RKAVLLALLA] | 50 | – | viral hemagglutination activity (FIG. 7) (purified A/PR/8/34): detected to a lesser extent |
| RRKKVALLPAVLLALLAP [SEQ. ID. NO: 19, RRKKVALLPAVLLALLAP] | – | – | HA inhibition (purified A/PR/8/34; [1]): Yes; % inhibition (purified A/PR/8/34; [2]): 94 ± 4%; EC50 (purified A/PR/8/34; [3]): 0.5 ± 0.4 µM |
| RRKKLLAP [SEQ. ID. NO: 26, RRKKLLAP] | 0 | No | – |
| RRKKA [SEQ. ID. NO: 16, RRKKA] | 0 | No | – |
| RRKKVALLAVLLALLA [SEQ. ID. NO: 32, RRKKVALLAVLLALLA] | 94 ± 4 | – | toxicity against MDCK cells (MDCK cells): significant toxicity; lysis (hemoglobin release) compared to SDS treated control (cRBCs; 10 μM peptide): 71%; lysis (hemoglobin release) compared to SDS treated control (cRBCs; 30 μM peptide): 100%; concentration inducing hemoglobin release (cRBCs; 0.5% cRBC, 1 hour at 37° C.): exceeding 5 μM; EC50 (purified A/PR/8/34): 0.5 ± 0.5 µM; viability at 24 h, 75 µM (in vitro): 20% |

| Molecule | % inhibition (purified A/PR/8/34; 10 μM) [%] | HA inhibition (purified A/PR/8/34) | other results |
| --- | --- | --- | --- |
| RRKKAAVALLAVLLALLA [SEQ. ID. NO: 43, RRKKAAVALLAVLLALLA] | – | – | HA inhibition (purified A/PR/8/34; [1]): Yes; % inhibition (purified A/PR/8/34; [2]): 95±2%; EC50 (purified A/PR/8/34; [3]): 1.6 ± 1.2 µM |
| RRKKALLAP [SEQ. ID. NO: 25, RRKKALLAP] | 0 | No | – |
| RRKKAAVALLPAVL [SEQ. ID. NO: 7, RRKKAAVALLPAVL] | 0 | No | – |
| RRKKAAVALL [SEQ. ID. NO: 11, RRKKAAVALL] | 0 | No | – |
| RRKKAAVALLPAVLLAL [SEQ. ID. NO: 4, RRKKAAVALLPAVLLAL] | 89 ± 3 | Yes | EC50 (purified A/PR/8/34): 3.8 ± 1.9 µM |
| RRKKLAVAAALLA [SEQ ID NO: 55, RRKKLAVAAALLA] | 0 | – | – |
| O=C(CCCCCCC(=O)ON1C(=O)CCC1=O)ON1C(=O)CCC1=O [DSS, disuccinimidyl suberate, reference compound] | – | – | virion aggregation by electron microscopy (purified PR/8 virus): large aggregates |
| RRKKAP [SEQ. ID. NO: 28, RRKKAP] | 0 | No | – |
| RRKKAAVALLPAVLL [SEQ. ID. NO: 6, RRKKAAVALLPAVLL] | 0 | No | – |
| RRKKALLPAVLLALLAP [SEQ. ID. NO: 20, RRKKALLPAVLLALLAP] | 94 ± 3 | Yes | EC50 (purified A/PR/8/34): 0.7 ± 0.3 µM |
| RRKKAAVA [SEQ. ID. NO: 13, RRKKAAVA] | 0 | No | – |
| RRKKAAVALLPAVLLALLAP [EB, reference compound] | – | – | toxicity against MDCK cells (MDCK cells): limited toxicity; effect on cRBC membrane integrity (cRBCs): no effect; % inhibition (purified A/PR/8/34; [2]): 95 ± 2%; % inhibition (purified A/PR/8/34; 10 μM peptide, normalized to EB-treated (10 μM EB) virus (64 HAU) = 100% inhibition (Table 4)): 100%; EC50 (purified A/PR/8/34; [3]): 2.6 µM; EC50 (purified A/PR/8/34; Example 6, Table 4): 2 µM |
| RRKKLAVLLALLA [SEQ. ID. NO: 45, RRKKLAVLLALLA] | – | Yes | virion aggregation by electron microscopy (purified PR/8 virus): large aggregates; EC50 (purified A/PR/8/34): 3 µM |
| RRKKAVALLPAVLLALLAP [SEQ. ID. NO: 18, RRKKAVALLPAVLLALLAP] | – | – | HA inhibition (purified A/PR/8/34; [1]): Yes; % inhibition (purified A/PR/8/34; [2]): 94 ± 6%; EC50 (purified A/PR/8/34; [3]): 0.8 ± 0.3 µM |
| RRKKAAVAL [SEQ. ID. NO: 12, RRKKAAVAL] | 0 | No | – |
| RRKKAA [SEQ. ID. NO: 15, RRKKAA] | 0 | No | – |
| RRKKAAV [SEQ. ID. NO: 14, RRKKAAV] | 0 | No | – |
| RRKKLAALPLVLAAPLAVLA [EBX, reference compound] | 0 | – | effect on cRBC membrane integrity (cRBCs): no effect |
| EEDDLAVLLALLA [SEQ ID NO: 54, EEDDLAVLLALLA] | 0 | – | – |
| RRKKAAVALLPAVLLALLA [SEQ. ID. NO: 2, RRKKAAVALLPAVLLALLA] | – | – | HA inhibition (purified A/PR/8/34; [1]): Yes; % inhibition (purified A/PR/8/34; [2]): 94 ± 2%; EC50 (purified A/PR/8/34; [3]): 0.5 ± 0.3 µM |
| RRKKAAVALLPAVLLALL [SEQ. ID. NO: 3, RRKKAAVALLPAVLLALL] | – | – | HA inhibition (purified A/PR/8/34; [1]): Yes; % inhibition (purified A/PR/8/34; [2]): 95 ± 2%; EC50 (purified A/PR/8/34; [3]): 0.6 ± 0.3 µM |
| RRKKAAVALLP [SEQ. ID. NO: 10, RRKKAAVALLP] | 4 ± 8 | No | – |
